# Measurements taken from patent US20250136553A1, “ACYLSULFONAMIDE KAT6A INHIBITORS” (Olema Pharmaceuticals, Inc., priority 2023, published 2025).
# Biological target: human-KAT6A (MYST domain 507-778 aa) (Homo sapiens (Human), UniProt Q92794)
# Experiment: KAT6A biochemical assay (TR-FRET)
# Details: TR-FRET; histone H4 peptide 200 nM, acetyl-CoA 600 nM; read-out: KAT6A IC50
# Text: TR-FRET based methods were used for assaying compounds of the present invention for KAT6A enzyme inhibitory activity. TR-FRET is a homogeneous proximity assay where Europium-labelled anti-acetyl lysine antibody binds to the acetylated substrate labelled with biotin, which in turn binds to streptavidin-labelled APC fluorescence acceptor. Europium can transfer energy to APC in the complex and the interaction of two dye-labelled binding partners is detected by the energy transfer between a donor and an acceptor dye and the subsequent light emission by the acceptor dye. KAT6A transfer an acetyl group from acetyl CoA to lysine amino acids of histones/target proteins. […] The selected compound of the present invention and enzyme are incubated for 30 min on plate shaker at 300 rpm at 25° C. Next, 5 μL of substrate mix containing histone H4 peptide and acetyl-CoA in assay buffer is added to the plate. The final concentrations of H4 peptide and acetyl-CoA are 200 nM and 600 nM, respectively. Following 60 min reaction at 25° C. on plate shaker at 300 rpm, 5 μL of detection mix containing Europium-labelled anti-acetyl antibody and streptavidin-APC is added to the reaction wells. The plate is further incubated at 25° C. on shaker at 300 rpm and is read in TR-FRET mode (Ex:340 nm; Em: 615 nm and 665 nm) on a plate reader to achieve ˜5-7-fold activity. The percent inhibition was calculated from the ratio of the fluorescence (FL) intensities [(F665/F615)×10000) using the formula […]. IC50 values of the compounds were determined by fitting the dose-response data to sigmoidal curve fitting equation using Graph pad prism software V9.
# Sequence of human-KAT6A (MYST domain 507-778 aa) (Q92794 507-778): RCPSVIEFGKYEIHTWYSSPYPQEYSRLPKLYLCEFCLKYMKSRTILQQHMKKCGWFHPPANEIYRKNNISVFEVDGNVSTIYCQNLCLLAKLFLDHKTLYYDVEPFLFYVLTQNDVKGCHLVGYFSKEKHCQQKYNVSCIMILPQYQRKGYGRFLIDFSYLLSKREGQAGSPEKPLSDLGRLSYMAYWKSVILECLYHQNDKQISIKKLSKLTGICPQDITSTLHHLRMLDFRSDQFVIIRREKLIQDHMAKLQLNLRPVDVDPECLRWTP
row,SMILES,IC50 [nM]
1,"CCc1ccc(OC)c(S(=O)(=O)NC(=O)c2cc(OC)c(Cn3cccn3)cn2)c1 [Compound 210, 5-((1H-pyrazol-1-yl)methyl)-N-((5-ethyl-2-methoxyphenyl)sulfonyl)-4-methoxypicolinamide]",64
2,"COc1cc(C(=O)NS(=N)(=O)c2c(OC)cccc2OC)ccc1Cn1cccn1 (stereo not drawn) [Compound 71, 4-((1H-pyrazol-1-yl)methyl)-N-(2,6-dimethoxyphenylsulfonimidoyl)-3-methoxybenzamide]",34
3,"COc1ccc(C(C)(C)C)cc1S(=O)(=O)NC(=O)c1ccc(Cn2cccn2)c(C)c1 [Compound 20, 4-((1H-pyrazol-1-yl)methyl)-N-((5-(tert-butyl)-2-methoxyphenyl)sulfonyl)-3-methylbenzamide]",39
4,"COc1cc(C(=O)NS(=O)(=O)c2ccccc2OC(F)F)ccc1Cn1cccn1 [Compound 51, 4-((1H-pyrazol-1-yl)methyl)-N-((2-(difluoromethoxy)phenyl)sulfonyl)-3-methoxybenzamide]",51
5,"COc1cc(C(=O)NS(=O)(=O)c2cc3c(cc2OC)CCC3)ccc1Cn1cccn1 [Compound 27, 4-((1H-pyrazol-1-yl)methyl)-3-methoxy-N-((6-methoxy-2,3-dihydro-1H-inden-5-yl)sulfonyl)benzamide]",12
6,"COc1cccc(OC2CCC2)c1[S@@](=N)(=O)NC(=O)c1ccc(Cn2cccn2)c(OC)n1 [Compound 298b, (S)-5-((1H-pyrazol-1-yl)methyl)-N-(2-cyclobutoxy-6-methoxyphenylsulfonimidoyl)-6-methoxypicolinamide]",511
7,"COc1cccc(OC)c1S(=O)(=O)NC(=O)c1ccc(Cn2cccn2)c(C2CC2)c1 [Compound 28, 4-((1H-pyrazol-1-yl)methyl)-3-cyclopropyl-N-((2,6-dimethoxyphenyl)sulfonyl)benzamide]",19
8,"CCc1ccc(OC)c(S(=O)(=O)NC(=O)c2ccc(Cn3cccn3)c(OC)c2)c1 [Compound 30, 4-((1H-pyrazol-1-yl)methyl)-N-((5-ethyl-2-methoxyphenyl)sulfonyl)-3-methoxybenzamide]",11
9,"COc1cc2c(cc1S(=O)(=O)NC(=O)c1ccc(Cn3cccn3)c(OC)n1)CCC2 [Compound 213, 5-((1H-pyrazol-1-yl)methyl)-6-methoxy-N-((6-methoxy-2,3-dihydro-1H-inden-5-yl)sulfonyl)picolinamide]",12
10,"COc1ccccc1S(=O)(=O)NC(=O)c1ccc(Cn2cccn2)c(OC)n1 [Compound 208, 5-((1H-pyrazol-1-yl)methyl)-6-methoxy-N-((2-methoxyphenyl)sulfonyl)picolinamide]",22
11,"COc1cc(C(=O)NS(=O)(=O)c2ccc(C(F)(F)F)cc2OC)ccc1Cn1cccn1 [Compound 31, 4-((1H-pyrazol-1-yl)methyl)-3-methoxy-N-((2-methoxy-4-(trifluoromethyl)phenyl)sulfonyl)benzamide]",44
12,"COc1ccc2c(c1S(=O)(=O)NC(=O)c1ccc(Cn3cccn3)c(OC)n1)OCC2 [Compound 211, 5-((1H-pyrazol-1-yl)methyl)-6-methoxy-N-((6-methoxy-2,3-dihydrobenzofuran-7-yl)sulfonyl)picolinamide]",8
13,"COc1cc(C(=O)NS(=O)(=O)c2c(OC)cccc2OC)ccc1COc1nccs1 [Compound 58, N-((2,6-dimethoxyphenyl)sulfonyl)-3-methoxy-4-((thiazol-2-yloxy)methyl)benzamide]",177
14,"COc1cc(C(=O)NS(=O)(=O)c2c(OC)cccc2-n2cccn2)ccc1Cn1cccn1 [Compound 36, 4-((1H-pyrazol-1-yl)methyl)-3-methoxy-N-((2-methoxy-6-(1H-pyrazol-1-yl)phenyl)sulfonyl)benzamide]",198
15,"COc1cc(OC)c(S(=O)(=O)NC(=O)c2ccc(Cn3cccn3)c(OC)c2)cc1F [Compound 43, 4-((1H-pyrazol-1-yl)methyl)-N-((5-fluoro-2,4-dimethoxyphenyl)sulfonyl)-3-methoxybenzamide]",18
16,"COc1cc(C(=O)NS(=O)(=O)c2c(OC)ccc3c2CCCC3)ccc1Cn1cccn1 [Compound 57, 4-((1H-pyrazol-1-yl)methyl)-3-methoxy-N-((2-methoxy-5,6,7,8-tetrahydronaphthalen-1-yl)sulfonyl)benzamide]",11
17,"COc1cc(Cn2cccn2)ccc1C(=O)NS(=O)(=O)c1ccccc1OC [Compound 2, 4-((1H-pyrazol-1-yl)methyl)-2-methoxy-N-((2-methoxyphenyl)sulfonyl)benzamide]",741
18,"COc1cc(C(=O)NS(=O)(=O)c2c(OC)cccc2OC)ncc1Cn1cccn1 [Compound 212, 5-((1H-pyrazol-1-yl)methyl)-N-((2,6-dimethoxyphenyl)sulfonyl)-4-methoxypicolinamide]",140
19,"COc1ccc2c(c1S(=O)(=O)NC(=O)c1ccc(Cn3cccn3)c(OC)n1)CCCC2 [Compound 217, 5-((1H-pyrazol-1-yl)methyl)-6-methoxy-N-((2-methoxy-5,6,7,8-tetrahydronaphthalen-1-yl)sulfonyl)picolinamide]",11

# Further lines, results first:
row,IC50 [nM],SMILES
1,9,"COc1cc(OC)c(S(=O)(=O)NC(=O)c2ccc(Cn3cccn3)c(OC)n2)c2c1CCO2 [Compound 253, 5-((1H-pyrazol-1-yl)methyl)-N-((4,6-dimethoxy-2,3-dihydrobenzofuran-7-yl)sulfonyl)-6-methoxypicolinamide]"
2,30,"COc1cccc(OC)c1S(=O)(=O)NC(=O)c1ncc(Cn2cccn2)c(OC)n1 [Compound 274, 5-((1H-pyrazol-1-yl)methyl)-N-((2,6-dimethoxyphenyl)sulfonyl)-4-methoxypyrimidine-2-carboxamide]"
3,34,"COc1ccc(C2CC2)cc1S(=O)(=O)NC(=O)c1ncc(Cn2cccn2)c(OC)n1 [Compound 273, 5-((1H-pyrazol-1-yl)methyl)-N-((5-cyclopropyl-2-methoxyphenyl)sulfonyl)-4-methoxypyrimidine-2-carboxamide]"
4,10,"COc1ccc(Cl)c(OC)c1S(=O)(=O)NC(=O)c1ccc(Cn2cccn2)c(OC)n1 [Compound 241, 5-((1H-pyrazol-1-yl)methyl)-N-((3-chloro-2,6-dimethoxyphenyl)sulfonyl)-6-methoxypicolinamide]"
5,318,"COc1cccc(F)c1[S@@](=N)(=O)NC(=O)c1ccc(Cn2cccn2)c(OC)n1 [Compound 305b, (S)-5-((1H-pyrazol-1-yl)methyl)-N-(2-fluoro-6-methoxyphenylsulfonimidoyl)-6-methoxypicolinamide]"
6,8,"COc1cc(F)c(S(=O)(=O)NC(=O)c2ccc(Cn3cccn3)c(OC)n2)c(OC)c1 [Compound 288, 5-((1H-pyrazol-1-yl)methyl)-N-((2-fluoro-4,6-dimethoxyphenyl)sulfonyl)-6-methoxypicolinamide]"
7,17,"COc1ccc(C)c(OC)c1[S@@](=N)(=O)NC(=O)c1ccc(Cn2cccn2)c(OC)n1 [Compound 301b, (S)-5-((1H-pyrazol-1-yl)methyl)-N-(2,6-dimethoxy-3-methylphenylsulfonimidoyl)-6-methoxypicolinamide]"
8,14,"COc1cc(F)cc(OC)c1S(=O)(=O)NC(=O)c1ccc(Cn2cccn2)c(OC)n1 [Compound 282, 5-((1H-pyrazol-1-yl)methyl)-N-((4-fluoro-2,6-dimethoxyphenyl)sulfonyl)-6-methoxypicolinamide]"
9,11,"COc1cc(C)c(S(=O)(=O)NC(=O)c2ccc(Cn3cccn3)c(OC)n2)c(OC)c1 [Compound 286, 5-((1H-pyrazol-1-yl)methyl)-N-((2,4-dimethoxy-6-methylphenyl)sulfonyl)-6-methoxypicolinamide]"
10,13,"COc1cc(C(=O)NS(=O)(=O)c2cccc3c2OC(C)C3)ccc1Cn1cccn1 (stereo not drawn) [Compound 314, 4-((1H-pyrazol-1-yl)methyl)-3-methoxy-N-((2-methyl-2,3-dihydrobenzofuran-7-yl)sulfonyl)benzamide]"
11,7,"COc1cccc(OC(F)(F)F)c1S(=O)(=O)NC(=O)c1ccc(Cn2cccn2)c(OC)n1 [Compound 235, 5-((1H-pyrazol-1-yl)methyl)-6-methoxy-N-((2-methoxy-6-(trifluoromethoxy)phenyl)sulfonyl)picolinamide]"
12,93,"COc1cc(C(=O)N[S@@](=N)(=O)c2cc(C(C)(C)CO)ccc2OC)ccc1Cn1cccn1 [Compound 291a, (R)-4-((1H-pyrazol-1-yl)methyl)-N-(5-(1-hydroxy-2-methylpropan-2-yl)-2-methoxyphenylsulfonimidoyl)-3-methoxybenzamide]"
13,11,"COc1cccc(OCC(F)(F)F)c1S(=O)(=O)NC(=O)c1ccc(Cn2cccn2)c(OC)n1 [Compound 227, 5-((1H-pyrazol-1-yl)methyl)-6-methoxy-N-((2-methoxy-6-(2,2,2-trifluoroethoxy)phenyl)sulfonyl)picolinamide]"
14,304,"COc1cc(C(=O)N[S@](=N)(=O)c2c(OC)ccc(Cl)c2OC)ccc1Cn1cccn1 [Compound 302b, (S)-4-((1H-pyrazol-1-yl)methyl)-N-(3-chloro-2,6-dimethoxyphenylsulfonimidoyl)-3-methoxybenzamide]"
